Assay results reported in patent US7470714B2, “GM-95-containing antitumor effect potentiator, combined antitumor preparation and antitumor agent” (Sosei Co., Ltd., priority 2003, dated 2008).

Columns and labels:
[1] = tested on: K562 cells; experiment: Apoptosis induction into K562 cells by combined use, flow cytometry with APO 2.7 antibody; assay type: cell-based; details: K562 cells cultured 10 days with 2 μM Telomestatin, then 72 hours with the antitumor substance
Method: K562 cells (available from ATCC (Rockville, Md.)) were cultured for 10 days in the presence of 2 μM Telomestatin (GM-95 substance). Subsequently, the Telomestatin-treated K562 cells were incubated for 72 hours together with Imanitib, Daunorubicin (DNR), Mitoxantrone (MIT), or Vincristine (VCR). The expression of apoptosis was measured by flow cytometric analysis using an FITC conjugate APO 2.7 monoclonal antibody (which is generated to a mitochondrial membrane protein (7A6 antigen) and is expressed in cells wherein apoptosis takes place). In the figures, the terms “control,” “TMS,” “Imanitib,” “DNR,” “MIT,” and “VCR” represent a control substance, the GM-95 substance (Telomestatin), Imanitib, Daunorubicin, Mitoxantrone, and Vincristine, respectively.

[2] = tested on: MCF-7 cells; experiment: Combined use of GM-95 substance with another antitumor substance, survival rate by MTT method; assay type: cell-based; details: 1 μM or 2 μM GM-95 for 7 or 14 days, then 2 days with antitumor substance
Method: Tumor cells were cultured under the conditions described below using the GM-95 substance and another antitumor substance in the same manner as in Example 5. After a certain period of time had passed, the survival rate of the tumor cells was measured.
MCF-7 cells were used as tumor cells. In the following experiments, the tumor cells were cultured in a medium formed by adding 10% FBS to DMEM (SIGMA, D6046) using a CO2 incubator (temperature: 37° C.; humidity: 100%; CO2 concentration: 5%).
MCF-7 cells were cultured under conditions described in the following (D) and (E). After completion of the culture, the survival rate of the tumor cells was measured by the MTT method. • (D): The tumor cells were previously cultured for 7 days together with 1 μM or 2 μM GM-95 substance. Thereafter, each of the aforementioned antitumor substances with a certain concentration was added to the cells in the absence of the GM-95 substance, followed by culture for 2 days. After completion of the culture, the survival rate of the tumor cells was measured. • (E): The tumor cells were previously cultured for 14 days together with 1 μM or 2 μM GM-95 substance. […] After completion of the culture, the survival rate of the tumor cells was measured. […]

[3] = Solubility in solvents; assay type: physicochemical
[4] = tested on: several types of cancer cells; experiment: Action of the GM-95 substance on several types of cancer cells; assay type: cell-based
Method: The inventors have already reported the details thereof (refer to International Publication WO00/24747, for example). The GM-95 substance is the strongest telomerase inhibitor among telomerase inhibitors including synthetic compounds that have been reported to date. The action of the GM-95 substance on several types of cancer cells was analyzed. […] In addition, the aged cells had lost their tumorigenicity.

[5] = tested on: HT1080 cells; experiment: Combined use of GM-95 substance with another antitumor substance, survival rate by MTT method; assay type: cell-based
Method: Tumor cells were cultured under the conditions described below using the GM-95 substance and another antitumor substance in the same manner as in Example 3. After a certain period of time had passed, the survival rate of the tumor cells was measured.
HT1080 cells were used as tumor cells. In the following experiments, the tumor cells were cultured in a medium formed by adding 10% FBS to RPMI1640 (SIGMA, R8758) using a CO2 incubator (temperature: 37° C.; humidity: 100%; CO2 concentration: 5%).
HT1080 cells were cultured under conditions described in the following (A) to (C). After completion of the culture, the survival rate of the tumor cells was measured by the MTT method. • (A): 0.5 μM GM-95 substance and each of the aforementioned antitumor substances with a certain concentration were simultaneously added to the HT1080 cells, and the tumor cells were then cultured for 2 days. After completion of the culture, the survival rate of the tumor cells was measured. • (B): The tumor cells were previously cultured for 7 days together with 0.5 μM or 1 μM GM-95 substance. […] After completion of the culture, the survival rate of the tumor cells was measured. • (C): The tumor cells were previously cultured for 7 or 14 days together with 0.5 μM or 1 μM GM-95 substance. […] After completion of the culture, the survival rate of the tumor cells was measured. […]

SMILES: O=C1c2c(O)ccc(O)c2C(=O)c2c(NCCNCCO)ccc(NCCNCCO)c21 [Mitoxantrone]
- Effect of inducing apoptosis by combined use of Telomestatin with another antitumor substance [1]: act synergistically

SMILES: Cc1oc2nc1-c1nc(co1)-c1nc(co1)-c1nc(co1)-c1nc(co1)-c1nc(co1)C1=NC(CS1)c1nc-2c(C)o1 (stereo not drawn) [GM-95]
- Antitumor action by combined use of the GM-95 substance with another antitumor substance (survival rate) [2]: enhanced
- Solubility in acetone ([3]; acetone): insoluble
- Solubility in a mixture consisting of chloroform and methanol (1:1) ([3]; chloroform and methanol (1:1)): soluble
- Solubility in water ([3]; water): insoluble
- Induction of aging of cells attended with telomere shortening [4]: induces the aging of cells
- Effect of inducing apoptosis by combined use of Telomestatin with another antitumor substance [1]: act synergistically
- Antitumor action by combined use of the GM-95 substance with another antitumor substance (survival rate) ([5]; HT1080, 0.5 μM or 1 μM GM-95, simultaneous or 7 or 14 days pre-treatment, then 2 days with antitumor substance): enhanced
- Number of surviving cells ([5]; HT1080 cultured for 14 days in the presence of 1 μM GM-95 substance): very small

SMILES: COc1cccc2c1C(=O)c1c(O)c3c(c(O)c1C2=O)C[C@@](O)(C(C)=O)C[C@@H]3O[C@H]1C[C@H](N)[C@H](O)[C@H](C)O1 [Daunorubicin]
- Effect of inducing apoptosis by combined use of Telomestatin with another antitumor substance [1]: act synergistically

SMILES: CC[C@]1(O)C[C@H]2CN(CCc3c([nH]c4ccccc34)[C@@](C(=O)OC)(c3cc4c(cc3OC)N(C=O)[C@H]3[C@@](O)(C(=O)OC)[C@H](OC(C)=O)[C@]5(CC)C=CCN6CC[C@]43[C@@H]65)C2)C1 [Vincristine]
- Effect of inducing apoptosis by combined use of Telomestatin with another antitumor substance [1]: act synergistically

SMILES: Cc1ccc(NC(=O)c2ccc(CN3CCN(C)CC3)cc2)cc1Nc1nccc(-c2cccnc2)n1 [Imanitib]
- Effect of inducing apoptosis by combined use of Telomestatin with another antitumor substance [1]: act synergistically
